In patent US20250176545A1, “LIQUID PESTICIDAL COMPOSITION” (SUMITOMO CHEMICAL COMPANY, LIMITED, priority 2022, published 2025) one finds decomposition products confirmed data, which are given here for two compounds.

This data set is described as follows: Test Example 2: identification of decomposition products of compound (I) by mass spectra. The data set is classed as physicochemical. Conditions: composition with compound (I-A), compound (I-B), dicamba diglycolamine salt, acetic acid and potassium hydroxide, 50° C. for 8 weeks. Here is the method:
Test Example 2: Identification of Decomposition Product of Compound (I)
Mass spectra were measured for compositions containing the compound (I-A), the compound (I-B), a dicamba diglycolamine salt, acetic acid and potassium hydroxide, which were left to stand in an incubator at 50° C. for 8 weeks.
The decomposition product a is obtained as a result of ring-opening of a uracil ring due to the cleavage of a C—N bond (bond between an N atom at the 3-position and a C atom at the 4-position) included in an imide structure constituting a uracil ring structure of the compound (I-A), and a bond between an N atom at the 1-position and a C atom at the 6-position. The decomposed product b is obtained as a result of the addition of diglycolamine (DGA) to the terminal ethyl ester moiety, in addition to the ring-opening of the uracil ring of the compound (I-A).

Consider `CCOC(=O)COc1ncccc1Oc1cc(-n2c(=O)cc(C(F)(F)F)n(C)c2=O)c(F)cc1Cl` [compound (I-A)], for which the decomposition products confirmed entry is “decomposition products a and b”.

`C#CCN1C(=O)COc2cc(F)c(N3C(=O)C4=C(CCCC4)C3=O)cc21` [compound (I-B)]: the decomposition products confirmed entry is “decomposition product c”.
